According to patent publication US7910624B1, “Compositions for the treatment of blood disorders” (The Trustees of Boston University, priority 1995, dated 2011):
“Also recorded” adds a separate entry of the source.

Legend:
[1] = system: γ-globin gene promoter and HSS-II region of the locus control region; experiment: In vivo footprinting (LM-PCR) of patients' erythroblasts before and during treatment; design: species or system human
Method: To determine whether this increase was due to the transcriptional modulation of the γ-globin genes and, if so, to examine whether protein-DNA interactions of regulatory sequences for γ-globin gene expression have been changed, in vivo footprinting analysis of the γ-globin gene promoter and HSS-II region of the locus control region (LCR) were performed. […] Compared to conventional in vitro footprinting methods, which are ordinarily employed to analyze protein-DNA interactions for promoter regions and fail to disclose tissue-specific binding of nuclear proteins to cis-acting elements, in vivo footprinting technique is able to provide bona fide information on transcription factors binding to cis-acting elements that reflects in vivo situations.
Erythroid cell-rich fractions were prepared from patients' peripheral blood or bone marrow before and during treatment, and were in vivo methylated using DMS. […] All of the footprints were analyzed two or more times to ensure reproducibility.
In the γ-globin gene promoter, a DNA fragment extending up to −200 by relative to the transcription start site is sufficient to direct efficient transcription of the γ-globin genes (K. T. McDonagh et al., J. Biol. Chem. 266:11965-74, 1991; M. J. Urich Blood 75:990-99, 1990). […] Erythroblasts from a patient with sickle cell anemia, before and after butyrate treatment were analyzed. […]

[2] = system: γ-globin promoter fragment containing FRE-γ1; experiment: Gel mobility shift assay with nuclear extracts of patients' erythroblasts; design: species or system human; details: nuclear extracts of thalassemic patients on therapy, 21 and 43 hours after
Method: To gain further information on transcription factors binding to FRE elements, gel mobility shift assays with were carried out with promoter fragments containing FRE-γ1. The 3′ half of the DNA sequence of FRE-γ1 is overlapped with that of the stage-selector element (SSE) which has recently been identified in the γ-globin promoter and may be competitively silencing γ-globin gene expression in the fetal stage. Nuclear extracts were purified from a human erythroleukemia cell line, K562, and from erythroblasts that were isolated from peripheral blood or bone marrow of patients. Nuclear extracts used for gel mobility shift assays were prepared as described (Andrews et al., Nucl. Acids Res. 19:2499-2500, 1991). Oligonucleotides, corresponding to the nucleotide sequence from −39 to −78 of the γ-globin promoter (FIG. 13), were annealed to form double-stranded DNA and 5′-labeled with T4 polynucleotide kinase. Prior to addition of a labeled probe, 5 μg of nuclear extracts were mixed with 500 ng of poly(dA-dT) in 20 μl of a binding buffer (25 mM Hepes, pH 7.5, 50 mM KCl, 12.5 mM MgCl2, 1 mM DTT, 10 mM ZnSO4, 5% (v/v) glycerol, 1% (v/v) NP-40) at room temperature for 30 minutes. After addition of a labeled probe of 5×10^6 cpm, the mixture was incubated for 30 minutes at room temperature. […]

[3] = system: erythroid progenitor cells cultured from human cord blood; experiment: Fetal globin expression in human cell cultures (3H-leucine labelled globin chains, densitometry); format: cell-based
How it was run: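 Human cord-blood mononuclear cells were grown in IMDM with 30% FCS and 2 U/ml erythropoietin, with compound present for 12–13 days or overnight. Colonies were labelled with 3H-leucine and chased overnight in leucine-free medium with compound. Globin chains were quantified by electrophoresis with Coomassie densitometry and autoradiography, relative to untreated cells from the same donor.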

Row | SMILES | in vivo footprints of HSS-II ([1]; erythroblasts from a treated sickle cell patient) | in vivo footprints over the γ-globin promoter ([1]; erythroblasts of treated patients with sickle cell anemia or β-thalassemia) | protein-DNA binding activity in gel shift [2] | Gamma Increase ([3]; Exp. A, 0.1 mM, 12-13 days, above untreated cells) | Gamma/(Gamma + Beta) ([3]; Exp. A, 0.1 mM, 12-13 days, untreated 76.0%) | Gamma Increase ([3]; Exp. B, 0.5 mM, 12-13 days) | Gamma/(Gamma + Beta) ([3]; Exp. B, 0.5 mM, 12-13 days, untreated 25.4%, 27.5%) | Gamma Increase ([3]; Exp. C, 0.5 mM, overnight) | Gamma/(Gamma + Beta) ([3]; Exp. C, 0.5 mM, overnight, untreated 52.0%)
1 | CCCC(=O)O [AB, arginine butyrate] | novel in vivo footprints that were not seen in a pre-treatment sample became apparent | induces multiple transcription factors which interact with the γ-globin gene promoter; also recorded: degree of protection on G residues in FRE-γ1 consistently increased | a new binding activity appeared |  |  |  |  |  | 
2 | O=C(O)COc1ccccc1 [PAA, Phenoxyacetic acid] |  |  |  | 6% | 82.0% | 13% | 38.8% | 3.6% | 55.6%
